Results taken from PMC12970513, “Unsaturated Phosphorus Electrophiles to Probe Protein Tyrosine Phosphatases” (Angewandte Chemie (International Ed. in English), 2026).

Tested on: PTP1B in MCF-7 cell lysate
Test: Proteomic profiling (SP2E enrichment, LC-MS/MS), MCF-7 lysate
Parameters: species or system human
Conditions: 500 µM SM-PO, vs DMSO
Description: Finally, we employed bottom‐up proteomics to validate that the labeled protein corresponds to the intended target PTP1B. For this, first MCF‐7 cell lysate (400 µg) was treated with 500 µM bio‐PO for 4 h. Directly afterwards, we applied a protocol described by the Kielkowski group, termed SP2E, which integrates protein purification with magnetic carboxyl‐coated beads and enrichment using magnetic streptavidin beads (Figure 5c). […] We reasoned that this might be due to the lower abundance of PTP1B in HEK293T compared to MCF‐7 lysate. Therefore, the protocol was repeated by doubling the proteome input to 800 µg. Following this minor adjustment, PTP1B was then enriched in our analysis (>4‐fold) (Figure 5e). […] However, this protein is included in the contamination repository for affinity purification (CRAPome) and appears in about half of such experiments as a contaminant. Given the comparably low PTP1B levels in Ramos lysate, we refrained from attempting pull‐down experiments from this cell line. […]
For proteome labelling using the SP2E workflow, a modified protocol by Becker et al. was followed.^[13] […] Tryptic peptides were eluted from the magnetic beads using a magnetic rack, samples were diluted and analyzed by qToF for purity i.e. absence of detergents and successful trypsin digestion. […]

Structure (SMILES): C#CP(=O)(O)Oc1ccc(CCNC(=O)CCCC[C@@H]2SC[C@@H]3NC(=O)N[C@@H]32)cc1 [SM-PO, 4-(2-biotinamidoethyl)phenyl ethynylphosphonic acid monoester]
- other proteins enriched by SM-PO: adipocyte plasma membrane–associated protein (APMAP) was identified among the enriched proteins
- enrichment of PTP1B or other phosphatases by SM-PO (enrichment >2 log2 fold change, p ≤ 0.05): neither PTP1B nor any other phosphatase was significantly enriched
